The text below walks through data of ChEMBL document CHEMBL1201862, “PubChem BioAssay data set” (2004).

Test systems include ACHN; CAKI-1; HCT-15; KM12; LOX IMVI; MOLT-4; Malme-3M; NCI-H226; NCI-H522; OVCAR-3; OVCAR-4; OVCAR-8; SK-OV-3; SN12C; SNB-19; UACC-257; UO-31; SF-539.
Holding throughout (experiment): NCI tumour cell line growth inhibition, 48 h

SMILES strings stand for the structures.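 Tested at 5 concentrations; 48 h exposure; 96-well plates; endpoints linearly interpolated, else capped at highest concentration. Abbreviation: GI50, concentration required for 50% inhibition of growth.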 Calls of active or inactive are those of the source. Cut-off read from the data, not from the text of the source: active = GI50 up to about 1.1 µM and inactive = higher.

For the compound `O=C(O)C1(c2ccccc2)CCCNCC1` (centres undefined), the GI50 in the test on ACHN was > 100 µM (inactive); with CAKI-1, > 100 µM (inactive); in the test with HCT-15 it was over 100 µM; with KM12, > 100 µM (inactive); in the test on LOX IMVI, > 100 µM (inactive); in the test with MOLT-4, > 100 µM (inactive). Besides, the GI50 in the test on Malme-3M, with NCI-H226, in the test on NCI-H522, in the test on OVCAR-3, in the test with OVCAR-4 and with OVCAR-8 was > 100 µM (inactive) throughout. In addition, the GI50 in the test on SK-OV-3, in the test on SN12C, in the test on SNB-19, with UACC-257 and in the test on UO-31 was > 100 µM (inactive) each time.
As to `CCOC(=O)C1=C(O)C(=O)c2ccsc2C1=O`, the GI50 with ACHN was > 100 µM (inactive); with CAKI-1, > 100 µM (inactive); in the test on HCT-15 it was over 100 µM; in the test on KM12 it was > 100 µM (inactive); in the test on LOX IMVI, > 100 µM (inactive); in the test on MOLT-4, > 100 µM (inactive). For the same compound, the GI50 is > 100 µM (inactive) in the test on Malme-3M; > 100 µM (inactive) in the test on NCI-H226; 69.3 µM (inactive) in the test with NCI-H522; > 100 µM (inactive) in the test with OVCAR-3; > 100 µM (inactive) in the test on OVCAR-4; > 100 µM (inactive) in the test with OVCAR-8. The GI50 in the test on SF-539, in the test with SK-OV-3, in the test on SN12C, in the test with SNB-19, in the test with UACC-257 and in the test on UO-31 was > 100 µM (inactive) throughout.
In the case of `COC(=O)/C(=N\NC(=S)NN)C(C(=O)C(=O)Nc1ccccc1C(N)=O)c1nc2ccccc2nc1O` (centres undefined), the GI50 is > 100 µM (inactive) in the test on ACHN; > 100 µM (inactive) in the test with CAKI-1; over 100 µM in the test with HCT-15; > 100 µM (inactive) in the test on KM12; > 100 µM (inactive) in the test on MOLT-4; > 100 µM (inactive) in the test on Malme-3M. Also, the GI50 in the test on NCI-H226, in the test with NCI-H522, in the test on OVCAR-4, with OVCAR-8, in the test on SF-539 and in the test with SN12C was > 100 µM (inactive) each time. In addition, the GI50 with SNB-19, in the test with UACC-257 and in the test on UO-31 was > 100 µM (inactive) each time.
Take `Cn1cc(S(=O)(=O)NC(=O)Nc2ccc(Cl)cc2)c(=O)c2ccc(F)cc21`: the GI50 in the test on ACHN is > 100 µM (inactive); with CAKI-1 it was > 100 µM (inactive); in the test on HCT-15, over 100 µM; in the test with KM12, 47.6 µM (inactive); with LOX IMVI it was 22.6 µM (inactive); with MOLT-4 it was > 100 µM (inactive). Also, the GI50 with Malme-3M was > 100 µM (inactive); in the test on NCI-H226 it was > 100 µM (inactive); with NCI-H522, 32 µM (inactive); in the test on OVCAR-4 it was > 100 µM (inactive); in the test with OVCAR-8 it was > 100 µM (inactive); in the test on SF-539 it was > 100 µM (inactive). Moreover, the GI50 in the test on SK-OV-3, in the test on SN12C, in the test with SNB-19, in the test with UACC-257 and in the test on UO-31 was > 100 µM (inactive) each time.
As to `CCCCNC1=C(C(=O)OCC)C(=O)CO1`, the GI50 in the test with ACHN was > 100 µM (inactive); with CAKI-1, > 100 µM (inactive); in the test on HCT-15, over 100 µM; with KM12, > 100 µM (inactive); in the test with LOX IMVI, > 100 µM (inactive); with MOLT-4, > 100 µM (inactive). Besides, the GI50 with Malme-3M, with NCI-H226, with NCI-H522, with OVCAR-3, in the test with OVCAR-4 and with OVCAR-8 was > 100 µM (inactive) each time. The GI50 in the test on SF-539, with SK-OV-3, in the test on SN12C, with SNB-19, in the test with UACC-257 and in the test on UO-31 was > 100 µM (inactive) throughout.
Take `OCn1nc2c(C3OCCO3)cc3ccccc3n2c1=S`: the GI50 was > 100 µM (inactive) in the test on ACHN; > 100 µM (inactive) with CAKI-1; over 100 µM in the test with HCT-15; > 100 µM (inactive) with KM12; > 100 µM (inactive) in the test with LOX IMVI; > 100 µM (inactive) in the test on MOLT-4. The GI50 with Malme-3M, in the test on NCI-H226, with NCI-H522, with OVCAR-3, with OVCAR-4 and in the test on OVCAR-8 was > 100 µM (inactive) in each case. In addition, the GI50 in the test on SF-539, in the test with SK-OV-3, in the test on SN12C, in the test with SNB-19, in the test with UACC-257 and in the test on UO-31 was > 100 µM (inactive) throughout.
As to `CCOc1cc2cnc3c4cc(OC)c(OC)cc4ccc3c2cc1OC`, the GI50 was > 100 µM (inactive) with ACHN; > 100 µM (inactive) with CAKI-1; over 100 µM with HCT-15; 46.9 µM (inactive) in the test on KM12; 65 µM (inactive) with LOX IMVI; 49.8 µM (inactive) in the test on MOLT-4. Besides, the GI50 with Malme-3M is 90.4 µM (inactive); with NCI-H226, > 100 µM (inactive); in the test with NCI-H522 it was 15.2 µM (inactive); with OVCAR-3 it was 29.9 µM (inactive); in the test on OVCAR-4, 86.7 µM (inactive); in the test with OVCAR-8, 43.4 µM (inactive). For the same compound, the GI50 was > 100 µM (inactive) in the test on SF-539; > 100 µM (inactive) with SK-OV-3; 30 µM (inactive) in the test on SN12C; 19.4 µM (inactive) in the test with SNB-19; > 100 µM (inactive) with UACC-257; > 100 µM (inactive) in the test on UO-31.
As for `COc1cccc(/C=C(/C(=O)O)c2cc(OC)c(OC)c(OC)c2)c1`, the GI50 in the test on ACHN is > 100 µM (inactive); in the test with CAKI-1, > 100 µM (inactive); in the test on HCT-15 it was over 100 µM; in the test on KM12 it was > 100 µM (inactive); in the test on LOX IMVI, > 100 µM (inactive); in the test with MOLT-4 it was > 100 µM (inactive). For the same compound, the GI50 in the test with Malme-3M, in the test on NCI-H226, with NCI-H522, in the test on OVCAR-3, in the test on OVCAR-4 and in the test on OVCAR-8 was > 100 µM (inactive) throughout. Also, the GI50 with SF-539, in the test on SN12C, with SNB-19, in the test on UACC-257 and in the test on UO-31 was > 100 µM (inactive) throughout.
For the compound `CN(C)C(=S)/N=c1\ssc(=S)n1-c1ccccc1`, the GI50 with ACHN was 16.7 µM (inactive); with CAKI-1, 19.2 µM (inactive); with HCT-15, 14.7 µM; in the test with KM12, 5.38 µM (inactive); in the test with Malme-3M it was 16.9 µM (inactive); in the test on NCI-H226, 10.1 µM (inactive). Further, the GI50 in the test with NCI-H522 was 14.5 µM (inactive); in the test on OVCAR-4, 15.9 µM (inactive); with OVCAR-8, 15.2 µM (inactive); in the test on SF-539, 16.8 µM (inactive); with SK-OV-3 it was 83.9 µM (inactive); in the test with SN12C, 15.3 µM (inactive). In addition, the GI50 in the test on SNB-19 was 39.6 µM (inactive); with UACC-257, 15.7 µM (inactive); with UO-31 it was 23.3 µM (inactive).
Turning to `COc1cccc(-c2cc(O)c3ccccc3n2)c1`, the GI50 with ACHN was 6.92 µM (inactive); with HCT-15, 4.7 µM; in the test with KM12, 4.03 µM (inactive); with LOX IMVI it was 5.18 µM (inactive); in the test with MOLT-4 it was 6.55 µM (inactive); in the test on Malme-3M, 3.89 µM (inactive). For the same compound, the GI50 was 6.89 µM (inactive) with NCI-H226; 3.06 µM (inactive) with NCI-H522; 4.2 µM (inactive) in the test on OVCAR-3; > 100 µM (inactive) in the test on OVCAR-4; 6.24 µM (inactive) with OVCAR-8; 3.57 µM (inactive) with SF-539. The GI50 is 5.38 µM (inactive) in the test with SK-OV-3; 6.46 µM (inactive) in the test on SN12C; 6.82 µM (inactive) in the test on SNB-19; 2.32 µM (inactive) in the test with UACC-257; 6.18 µM (inactive) with UO-31.
On to `COc1cc(N)c2[nH]c3c(C)ccc(C)c3c2c1`, for which the GI50 with ACHN is > 100 µM (inactive); with CAKI-1, > 100 µM (inactive); with HCT-15, over 100 µM; with KM12, > 100 µM (inactive); in the test with LOX IMVI, > 100 µM (inactive); in the test with MOLT-4 it was > 100 µM (inactive). The GI50 in the test with Malme-3M, in the test with NCI-H226, in the test with NCI-H522, with OVCAR-3, in the test on OVCAR-4 and in the test on OVCAR-8 was > 100 µM (inactive) each time. Also, the GI50 in the test with SF-539, with SN12C, in the test on SNB-19, in the test on UACC-257 and in the test with UO-31 was > 100 µM (inactive) in each case.
For `CC(C)=CCC/C(C)=C/CC/C(C)=C/Cc1c(O)c2ccccc2oc1=O`, the GI50 is > 100 µM (inactive) with ACHN; 69 µM in the test with HCT-15; > 100 µM (inactive) in the test with KM12; > 100 µM (inactive) in the test with LOX IMVI; > 100 µM (inactive) with MOLT-4; > 100 µM (inactive) in the test on Malme-3M. Further, the GI50 in the test with NCI-H226 was 47.1 µM (inactive); in the test on NCI-H522, > 100 µM (inactive); in the test on OVCAR-3, 75.5 µM (inactive); with OVCAR-4, > 100 µM (inactive); in the test with OVCAR-8 it was > 100 µM (inactive); with SF-539 it was > 100 µM (inactive). Moreover, the GI50 with SK-OV-3 was > 100 µM (inactive); in the test on SN12C it was > 100 µM (inactive); with SNB-19 it was > 100 µM (inactive); in the test with UACC-257 it was 99.8 µM (inactive); in the test on UO-31, 48.8 µM (inactive).
